# Experimental data reported in US20030199494A1, “1,2,3,5-tetrahydrobenzo'c!azepin-4-one derivatives having muscarinic antagonist activity” (priority 2000, published 2003).
# Experiments:
# Type in all cases: cell-based
# M3 receptor [1] = biological target: T1, M3 receptor (Cavia porcellus, UniProt H0W1Z3); experiment: Functional tissue assay, M3 guinea-pig ileum (antagonist pA2); details: guinea-pig ileum, isometric contraction; antagonist pA2 per method; mean ± spread (n pts)
# T1 construct: Sections (2 cm) are cut from the ileum of the killed guinea-pigs; from tissue; host or cells: guinea-pig ileum
# Text: (§1) Functional Assays of M1, M2 and M3 Receptor Activity
# (§2) Initial evaluation of test compounds is by assay of functional tissue responses. This has the advantage that it readily discriminates between agonist partial agonist and antagonist activity
# (§3) Sections (2 cm) are cut from the ileum of the killed guinea-pigs, 10 cm from the ileo-caecal junction. One end is attached to a tissue holder/aerator and the other end via a cotton thread to an isometric transducer. The tissue is immersed in gassed normal Ca^2+ Krebs solution at 32±0.5° C. A resting tension of 0.5 g is applied and isometric contractions measured by computer or polygraph.
# (§4) Following at least 30 min equilibration to allow twitches or tension to stabilize, cumulative concentration-response curves for the muscarinic agonists are constructed. The concentration is increased in half logarithmic increments after the contraction in the presence of each concentration has plateaued Steady-state contractions at each concentration are measured and the inhibition expressed as a percentage of the baseline twitch height in atria and vas deferens or as the maxi contraction in the ileum. EC50 values for the muscarinic agonists are determined from individual curves as the molar concentration required for 50% inhibition of twitch height or the 50% of maximum contraction (ileum). Geometric mean EC50 values and their 95% confidence limits are calculated.
# (§5) A concentration-response curve to the test agonist is established in the absence of antagonist and after achieving the maximum effect, the agonist washed from the bath to restore twitch contractions. Three further concentration-response curves are then obtained in the same manner at approximately 30 min intervals, with the antagonist (Standards—pirenzepine M1, darifenacin M3, methoctramine M2) being introduced to the bath 15 min before each of these subsequent curves.
# (§6) Concentration-response curves in the absence and presence of antagonist are measured as described for the agonist studies. The shifts in the concentration-response curves in the presence of antagonist compared with the absence of antagonist are expressed as the dose-ratios (DR) of the EC50 values. pA2 values are then determined from Schild analysis of plots of the mean corrected […] against log molar concentration of antagonist. The slopes of the Schild plots are determined by linear regression and the pA2 values determined from the intercept on the concentration axis (when log(DR−1) is zero). pA2 values are also determined from individual concentrations of antagonist by applying the equations: pA2=log(DR−1) log[B], wherein B is the molar concentration of antagonist.
# M3 receptor [2] = experiment: as above; details: ileum versus atria, log10 units
# Text: as §1, §2, §3, §4, §5, §6
# M2 receptor = biological target: T2, M2 receptor (Cavia porcellus, UniProt H0VRN8); experiment: Functional tissue assay, M2 guinea-pig atria (antagonist pA2); details: guinea-pig left atria, paced; antagonist pA2 per method; mean ± spread (n pts)
# T2 construct: from tissue; host or cells: guinea-pig left atrium
# T2 sequence (H0VRN8 1-466): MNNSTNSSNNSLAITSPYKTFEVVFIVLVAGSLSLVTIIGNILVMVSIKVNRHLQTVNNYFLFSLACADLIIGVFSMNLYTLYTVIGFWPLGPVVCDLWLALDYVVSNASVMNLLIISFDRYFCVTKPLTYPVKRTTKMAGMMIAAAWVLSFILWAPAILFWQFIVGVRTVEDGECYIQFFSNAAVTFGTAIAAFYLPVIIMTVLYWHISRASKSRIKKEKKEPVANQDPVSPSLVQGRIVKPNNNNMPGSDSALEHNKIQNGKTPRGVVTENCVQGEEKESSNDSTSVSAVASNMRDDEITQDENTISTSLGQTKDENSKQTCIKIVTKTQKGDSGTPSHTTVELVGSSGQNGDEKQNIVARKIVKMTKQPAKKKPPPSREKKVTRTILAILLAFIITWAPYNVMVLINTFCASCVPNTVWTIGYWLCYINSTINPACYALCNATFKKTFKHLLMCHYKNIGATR
# Text: as §1, §2
# Guinea-pigs are killed by a blow to the back of the head and left atrium removed. The atrium is secured to a pari of stainless steel electrodes by means of a cotton thread and immersed in the organ bath containing gassed Krebs solution with normal Ca^2 + at 32±0.50C. Atria are placed at 2 Hz with square-wave pulses of 0.5 ms pulse width. Isometric contractions are recorded by computer or polygraph.
# Following at least 30 min equilibration to allow twitches or tension to stabilize, cumulative concentration-response curves for the muscarinic agonists are constructed. The concentration is increased in half logarithmic increments after the contraction in the presence of each concentration has plateaued Steady-state contractions at each concentration are measured and the inhibition expressed as a percentage of the baseline twitch height in atria and vas deferens or as the maxi contraction in the ileum. […]
# Concentration-response curves in the absence and presence of antagonist are measured as described for the agonist studies. […]
# T1 sequence (H0W1Z3 1-590): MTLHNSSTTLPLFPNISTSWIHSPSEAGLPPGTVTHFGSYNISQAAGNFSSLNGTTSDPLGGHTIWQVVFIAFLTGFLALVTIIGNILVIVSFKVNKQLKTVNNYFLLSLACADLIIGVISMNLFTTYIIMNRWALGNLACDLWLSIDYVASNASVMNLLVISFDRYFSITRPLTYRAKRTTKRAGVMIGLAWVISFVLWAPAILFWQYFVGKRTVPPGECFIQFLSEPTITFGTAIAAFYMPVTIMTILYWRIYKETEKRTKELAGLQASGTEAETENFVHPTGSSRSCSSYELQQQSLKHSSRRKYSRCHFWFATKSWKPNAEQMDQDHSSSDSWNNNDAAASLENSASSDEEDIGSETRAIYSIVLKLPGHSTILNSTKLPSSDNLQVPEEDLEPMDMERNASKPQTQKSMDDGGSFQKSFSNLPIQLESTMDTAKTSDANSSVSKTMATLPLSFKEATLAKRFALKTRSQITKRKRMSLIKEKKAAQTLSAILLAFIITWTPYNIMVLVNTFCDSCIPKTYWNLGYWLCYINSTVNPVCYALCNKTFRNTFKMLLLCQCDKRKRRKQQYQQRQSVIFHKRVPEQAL
Compound,M3 (ileum) (M3 receptor [1]),Log10 selectivity (M3 receptor [2]),M2 antagonist pA2 (atria) (M2 receptor)
"O=C1CN(CCNCc2ccccc2)Cc2ccccc2[C@]1(O)C1CCC1 (stereo in doubt) [Compound 19, 2-[2-(benzylamino)ethyl]-5-cyclobutyl-5-hydroxy-1,3,4,5-tetrahydrobenzo[c]azepin-4-one]",6.5 ± 0.4 (3 pts),1.6 ± 0.7,4.9 ± 0.6 (4 pts)
"O=C1CN(CCCNCc2ccccc2)Cc2ccccc2[C@]1(O)C1CCC1 (stereo in doubt) [Compound 22, 2-[3-(Benzylamino)propyl]-5-cyclobutyl-5-hydroxy-1,2,3,5-tetrahydrobenzo[c]azepin-4-one]",6.7 ± 0.4 (4 pts),1.5 ± 0.5,5.2 ± 0.3 (4 pts)
